The values below are quoted from earlier work in patent publication US8137734B2, “Preparation of controlled release skeletal muscle relaxant dosage forms” (Aptalis Pharmatech, Inc., priority 2008, dated 2012).

Structures are written as SMILES.

`CN(C)CCC=C1c2ccccc2C=Cc2ccccc21` [Cyclobenzaprine]: the absorption entry (after oral administration) is recorded as “well absorbed”. Besides, the half-life result (elimination) was “one to three”.
